Counter-ions that a name gives are not always drawn. Like-named read-outs stand apart in the source and are kept apart here.
Legend:
mice = experiment: PBQ Writhing Assay (analgesia in mice); assay type: in vivo, mouse (Charles River male albino mice); details: for responders at 30 mg/kg: 0.5 h, 30 mg per kg, 30 min before PBQ, fraction out of 9 or 10 mice; for rank order of potency in the Writhing Assay: more potent compounds tested
Source text: The Writhing Assay is one of the most widely-used experimental procedures for measuring the analgesic activity of different narcotic and nonnarcotic analgesic agents, and involves the continuous, chemically-induced pain of visceral origin to an animal, such as a mouse or rat. [Gyires et al., Arch. int. Pharmacodyn, 267, 131-140 (1984); C. Vander Wende et al., Fed. Proc., 15, 494 (1956); Koster et al., Fed. Proc., 18, 412 (1959); and Witken et al., J. Pharmacol. exp. Ther., 133, 400-408 (1961).] Chemicals which may be used to induce this pain include phenylbenzoquinone (PBQ) and acetic acid. As a result of the chemical irritation to the animal, a characteristic stretching and writhing of the animal (dorsiflexion of the animal's back, extension of its hindlimbs and the strong contraction of its abdominal musculature) will generally occur. […] Drugs which reduce the number of writhes of the animal appear to restore the normal nociceptive threshold of the animal.
Charles River male albino mice, weighing 20 to 30 grams were used in this assay.
Thirty minutes after subcutaneous or intragastric administration to ten mice of 30 mg per kilogram of body weight of a compound of the present invention ("test compound"), […] per 10 g of body weight of a 0.025% w/v solution of PBQ was injected intraperitoneally into each mouse. Ten mice which were given saline in place of a test compound of the invention were used as a control group.
Five minutes later, each mouse was individually placed into a glass beaker for observation, and the number of writhes occurring during the following tenminute period was counted.
A test compound was considered to have produced analgesia in a mouse if, in accordance with the conditions set forth above, and under the test criteria employed for this assay, after the administration of 30 mg per kilogram of body weight of a compound of the present invention to the mouse, the number of writhes elicited by a mouse injected with PBQ was equal to, or less than, one-half the median number of writhes recorded for the saline-treated control group of mice that day, as described by Taber in "Predictive Value of Analgesic Assays in Mice and Rats," Advances in Biochemical Psychopharmacology, 8, 191 (1974).
The standard initial screening dose of a test compound employed in this assay was […] for both routes of administration. If this initial screening dose of the test compound produced analgesia in seven of ten mice, then the effect of additional doses of the test compound on the writhing response was evaluated, and then the ED50 dose was generally calculated. (The slopes of the dose-response curves for all test compounds analyzed were compared as described by Taltarida and Murray, Manual of Pharmacologic Calculations, Page 11 (Springer Verlag, New York, 1981)).
The results for the particular compounds of the present invention analyzed in this assay, and discussed in the examples identified below which correspond thereto, are presented in Table I hereinbelow under the heading "PBQ WRITHING ASSAY". The fractions indicate the number of mice out of 9 or 10 in which the initial screening dose of a test compound produced analgesia. The numbers which are not fractions represent ED50 doses.

[1] = target: T1, prostaglandin E2-induced contractions of segments of guinea pig ileum (Cavia porcellus, UniProt A0A286XHJ6); experiment: Prostaglandin (PGE) Antagonism Assay, inhibition of prostaglandin E2-induced contractions of guinea pig ileum segments; parameters: species or system guinea pig (male albino); details: 37° C., Schild plot, read-out: PGE ANTAGONISM IN GUINEA PIG ILEUM (pA2) (converted)
T1 construct: Segments of ileum about 2 cm long were then cut and mounted in a 10-mL tissue bath; from tissue; host or cells: ileum segments of male albino guinea pigs
T1 sequence (A0A286XHJ6 1-405): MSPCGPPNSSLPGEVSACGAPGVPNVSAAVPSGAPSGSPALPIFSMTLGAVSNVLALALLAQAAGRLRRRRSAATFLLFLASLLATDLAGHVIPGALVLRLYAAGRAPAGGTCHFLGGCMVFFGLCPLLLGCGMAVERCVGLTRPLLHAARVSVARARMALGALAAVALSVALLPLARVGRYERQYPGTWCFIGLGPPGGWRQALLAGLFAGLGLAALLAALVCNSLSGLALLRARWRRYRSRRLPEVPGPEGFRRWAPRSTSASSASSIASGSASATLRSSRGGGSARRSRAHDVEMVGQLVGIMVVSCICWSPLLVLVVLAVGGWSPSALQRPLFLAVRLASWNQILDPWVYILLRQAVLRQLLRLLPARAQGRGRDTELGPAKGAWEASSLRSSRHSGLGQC
Procedure: In order to determine the effectiveness of several of the compounds of the present invention ("test compounds") as prostaglandin E2 antagonists,a prostaglandin antagonism assay was conducted, as described below, to determine the ability of these compounds to inhibit prostaglandin E2 -induced contractions of segments of guinea pig ileum.
Male albino guinea pigs weighing 200 to 500 grams were sacrificed by cervical dislocation.
The ileums were then quickly removed from the guinea pigs and placed in a modified Tyrode solution, a solution which is known to those of skill in the art, containing one-half of the usual amount of magnesium ions.
Segments of ileum about 2 cm long were then cut and mounted in a 10-mL tissue bath containing the modified Tyrode solution. The solution was maintained at 37° C. and aerated with a gaseous mixture of 95% oxygen and 5% carbon dioxide.
Submaximal contractions of the ileum segments were then generated by injecting prostaglandin E2 into the bath, and detected isotonically. Data for a control prostaglandin E2 dose response curve plotting concentration of prostaglandin E2 versus number of contractions generated was then obtained by experimentally adjusting the dose of the prostaglandin E2 being injected into the tissue bath, in a manner known by those of skill in the art.
Solutions or suspensions containing an initial amount of a test compound in modified Tyrode solution ("test solutions/suspensions") were then separately substituted for the tissue bath. Each test solution/suspension was then kept in constant contact with the ileum tissue, except for brief periods to drain the bath in preparation for rinsing with fresh test solution/suspension. Different doses of prostaglandin E2 were again injected into the test solutions/suspensions.
A second prostaglandin E2 dose response curve was then generated for PGE2 in the presence of a test compound.
A dose ratio of EC50 doses (that dose of a compound or drug which is necessary to elicit a 50% maximal biological response and, thus, which is necessary to elicit a 50% reduction in the contractions of %he guinea pig ileum segments in this assay) was then calculated from the results of each test in a manner known by those of skill in the art. […]
If the initial concentration of a test compound was determined to be "active," then varying concentrations of the test compound were then assayed.
The pA2 value (a statistical constant which is a common measure of expressing the potency of a particular drug as a competitive antagonist) was then calculated for each test compound by schild plot calculations, as described by H. O. Schild, "pA A New , Scale for the Measurement of Drug Antagonism, " Br. J. Pharmacol, 2, 189 (1947), according to the following mathematical formula: […]

[2] = test system: isolated smooth muscle preparations; details: cited from earlier work
[3] = test system: urethane-anesthetized rats; details: cited from earlier work
[4] = Mus musculus, po, intragastric, mice, read-out: PBQ WRITHING ASSAY, No. Out of 10 (mice in which the initial screening dose produced analgesia), I.G. (converted)
[5] = Mus musculus, sc, subcutaneous, mice, read-out: PBQ WRITHING ASSAY, No. Out of 10 (mice in which the initial screening dose produced analgesia), S.C. (converted)

CCCCC(C)(C/C=C\C(=O)N1Cc2ccccc2Oc2ccc(Cl)cc21)O[Si](C)(C)C (centres unmarked) [Example 4, 8-chloro-10,11-dihydro-10-[5-methyl-1-oxo-5-[(trimethylsilyl)oxy]-2Z-nonenyl]-dibenz[b,f][1,4]oxazepine]
responders at 30 mg/kg (mice; [4]): 50%
responders at 30 mg/kg (mice; [5]): 80%

CCCCC(C)(C/C=C/C(=O)N1Cc2ccccc2Oc2ccc(Cl)cc21)O[Si](C)(C)C (centres unmarked) [Example 5, 8-chloro-10,11-dihydro-10-[5-methyl-1-oxo-5-[(trimethylsilyl)oxy]-2E-nonenyl]-dibenz[b,f][1,4]oxazepine]
responders at 30 mg/kg (mice; [4]): 30%
responders at 30 mg/kg (mice; [5]): 60%

CCCCC(C)(O)C/C=C/C(=O)N1Cc2ccccc2Oc2ccc(Cl)cc21 (centres unmarked) [Example 6, 8-chloro-10,11-dihydro-10-(5-hydroxy-5-methyl-1-oxo-2E-nonenyl)dibenz[b,f][1,4]oxazepine]
Kb [1]: 166 nM
responders at 30 mg/kg (mice; [4]): 40%
responders at 30 mg/kg (mice; [5]): 40%

CCCCCC(C)(/C=C/C(=O)N1Cc2ccccc2Oc2ccc(Cl)cc21)O[Si](C)(C)C (centres unmarked) [Example 8, 8-chloro-10,11-dihydro-10-[4-methyl-1-oxo-4-[(trimethylsilyl)oxy]-2E-nonenyl]dibenz-[b,f][1,4]oxazepine]
responders at 30 mg/kg (mice; [4]): 60%
responders at 30 mg/kg (mice; [5]): 40%

CCCCCC(C)(O)/C=C/C(=O)N1Cc2ccccc2Oc2ccc(Cl)cc21 (centres unmarked) [Example 9, 8-chloro-10,11-dihydro-10-(4-hydroxy-4-methyl-1-oxo-2E-nonenyl)dibenz[b,f][1,4]oxazepine]
Kb [1]: 617 nM
responders at 30 mg/kg (mice; [4]): 50%
responders at 30 mg/kg (mice; [5]): 90%

CCCCCC(O)/C=C/C(=O)N1Cc2ccccc2Oc2ccc(Cl)cc21 (centres unmarked) [Example 11]
Kb [1]: 214 nM
responders at 30 mg/kg (mice; [4]): 20%
responders at 30 mg/kg (mice; [5]): 30%

CCCCCC(/C=C/C(=O)N1Cc2ccccc2Oc2ccc(Cl)cc21)OC(=O)CN (centres unmarked) [Example 12, glycine, 1-[3-(8-chloro-10,11-dihydrodibenz-[b,f][1,4]oxazepin-10-yl)-3-oxo-1E-propenyl]-hexyl ester, monohydrochloride]
responders at 30 mg/kg (mice; [4]): 55.6%
responders at 30 mg/kg (mice; [5]): 30%
rank order of potency in the Writhing Assay (mice): Example 17 > Example 9 > Example 4 > Example 8 > Example 5 > Example 12

CCCCCC(=O)/C=C/C(=O)N1Cc2ccccc2Oc2ccc(Cl)cc21 [Example 13, 8-chloro-10,11-dihydro-10-(1,4-dioxo-2E-nonenyl)dibenz[b,f][1,4]oxazepin]
responders at 30 mg/kg (mice; [4]): 10%
responders at 30 mg/kg (mice; [5]): 22.2%

CCCCCC/C=C/C(=O)N1Cc2ccccc2Oc2ccc(Cl)cc21 [Example 14, 8-chloro-10,11-dihydro-10-(1-oxo-2E-nonenyl)dibenz[b,f][1,4]oxazepine]
responders at 30 mg/kg (mice; [4]): 10%
responders at 30 mg/kg (mice; [5]): 10%

CCCCCC(O)C#CC(=O)N1Cc2ccccc2Oc2ccc(Cl)cc21 (centres unmarked) [Example 15, 8-chloro-10,11-dihydro-10-(4-hydroxy-1-oxo-2-nonynyl)dibenz[b,f][1,4]oxazepine]
responders at 30 mg/kg (mice; [4]): 10%
responders at 30 mg/kg (mice; [5]): 30%

O=C(CCC(=O)N1Cc2ccccc2Oc2ccc(Cl)cc21)CCc1ccncc1 [Example 17, 8-chloro-10-[1,4-dioxo-6-(4-pyridinyl)hexyl]-10,11-dihydrodibenz[b,f][1,4]-oxazepine, monohydrochloride]
Kb [1]: 102 nM
ED50 (mice; Mus musculus, po, intragastric, mice, ED50 dose, read-out: PBQ WRITHING ASSAY, ED50, I.G.): 5.4 mg/kg
most potent compound tested in the Writhing Assay (mice; in words): the most potent compound of the invention tested in this assay
rank order of potency in the Writhing Assay (mice): Example 17 > Example 9 > Example 4 > Example 8 > Example 5 > Example 12

O=C(Cc1ccccc1)NNC(=O)N1Cc2ccccc2Oc2ccc(Cl)cc21 [SC-18637]
inhibition of the stimulant actions of prostaglandins [2]: inhibit the stimulant actions of prostaglandins on isolated smooth muscle preparations

CC(=O)NNC(=O)N1Cc2ccccc2Oc2ccc(Cl)cc21 [SC-19220]
bladder capacity [3]: increased the bladder capacity
voiding efficiency of micturition [3]: reduced the voiding efficiency of micturition
inhibition of the stimulant actions of prostaglandins [2]: inhibit the stimulant actions of prostaglandins on isolated smooth muscle preparations

From patent US5449673A, “10,11-dihydro-10-(3-substituted-1-oxo-2-propyl, propenyl or propynyl)dibenz[b,f][1,4] oxazepine prostaglandin antagonists” (G. D. Searle & Co., priority 1994, dated 1995)
